For 28 compounds, IC50 results are on record in patent US8557816B2, “Aurora kinase modulators and method of use” (Amgen Inc., priority 2007, dated 2013).

One assay deals with T1, AuroraA-TPX2 (Homo sapiens, UniProt O14965).
T1 construct: 20 μL of AuroraA-TPX2 KD GST for a final volume of about 41 μL; GST
T1 sequence (O14965 133-383 limits assumed): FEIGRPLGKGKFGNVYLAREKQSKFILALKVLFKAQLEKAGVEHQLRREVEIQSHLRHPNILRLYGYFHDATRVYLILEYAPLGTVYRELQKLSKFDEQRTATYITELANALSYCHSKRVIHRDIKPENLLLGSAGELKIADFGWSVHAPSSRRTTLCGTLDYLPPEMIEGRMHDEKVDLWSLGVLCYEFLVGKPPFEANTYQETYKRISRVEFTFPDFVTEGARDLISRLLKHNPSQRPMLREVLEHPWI
T1 sequence (Q9ULW0 1-43 partner limits assumed): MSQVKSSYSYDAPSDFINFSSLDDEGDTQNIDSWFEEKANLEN
In words: AuroraA-TPX2 Homogeneous Time Resolved Fluorescent (HTRF) kinase assay. The note with it: average; read-out: AurA_IC50_IP (uM Avg). The assay is classed as biochemical. The procedure, abridged: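 HTRF read-out (Eu 615 nm to APC 655 nm) of phosphorylated biotin-PLK, detected with 0.02 nM europium anti-phosphoPLK antibody and 0.0005 mg/mL SA-APC after overnight equilibration.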
Background: In TR-FRET formats the signal depends on donor and acceptor labels being close together.

The target of the next assay is T2, AuroraB (Homo sapiens, UniProt Q96GD4).
T2 construct: 20 μL of AuroraB FL H is for a final volume of 41 μL; His
In words: AuroraB Homogeneous Time Resolved Fluorescent (HTRF) kinase assay. The assay is classed as biochemical. To be noted: average; read-out: AurB_IC50_IP (uM Avg). The essentials: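 Full-length His-tagged kinase phosphorylates biotinylated Histone H3 (0.1 μM final) with ATP in pH 7.5 HEPES containing MgCl, MnCl, DTT and BSA for about 90 min. EDTA-containing detection mix with SA-APC and Eu-anti-phosphoHistone H3 then equilibrated about 60 min; HTRF read with 320 nm excitation, emissions 615/655 nm.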

T2 sequence (Q96GD4 whole entry): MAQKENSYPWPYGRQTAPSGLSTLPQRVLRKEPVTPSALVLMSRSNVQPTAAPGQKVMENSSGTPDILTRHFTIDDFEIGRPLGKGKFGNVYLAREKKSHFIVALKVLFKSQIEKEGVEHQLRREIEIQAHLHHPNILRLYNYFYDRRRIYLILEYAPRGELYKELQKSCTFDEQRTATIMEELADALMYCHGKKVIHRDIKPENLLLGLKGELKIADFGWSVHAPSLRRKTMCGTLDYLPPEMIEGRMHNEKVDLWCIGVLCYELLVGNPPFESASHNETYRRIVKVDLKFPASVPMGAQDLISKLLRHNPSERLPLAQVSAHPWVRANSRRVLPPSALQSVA

For `Brc1cnc2c(Oc3ccc(Nc4nnc(-c5ccccc5)c5ccccc45)cc3)ncnc2c1` [compound 599], the IC50 is 0.794 µM at AuroraA-TPX2 and 0.256 µM at AuroraB.

For `COc1cnc2c(Oc3ccc(Nc4nnc(-c5ccnn5C)c5ccccc45)cc3)ccnc2c1` [compound 223, N-(4-((7-(methyloxy)-1,5-naphthyridin-4-yl)oxy)phenyl)-4-(1-methyl-1H-pyrazol-5-yl)-1-phthalazinamine], the IC50 on AuroraA-TPX2 stood at 1.33 µM; at AuroraB, 0.039 µM.

As to `COc1cnc2c(Oc3ccc(Nc4nnc(-c5ccc(Cl)cc5)c5ccccc45)cn3)ccnc2c1` [compound 222, 4-(4-chlorophenyl)-N-(6-((7-(methyloxy)-1,5-naphthyridin-4-yl)oxy)-3-pyridinyl)-1-phthalazinamine], the IC50 at AuroraA-TPX2 is 0.047 µM; on AuroraB, 0.006 µM.

Regarding `Cc1csc(-c2nnc(Nc3ccc(Oc4ccnc5cc(C#N)ccc45)cc3)c3ccccc23)n1` [compound 86, 4-((4-((4-(4-methyl-1,3-thiazol-2-yl)-1-phthalazinyl)amino)phenyl)oxy)-7-quinolinecarbonitrile], the IC50 on AuroraA-TPX2 is 0.031 µM; on AuroraB, 0.014 µM.

Regarding `COc1cnc2c(Sc3ccc(Nc4nnc(NCCCSC)c5ccccc45)cc3)ccnc2c1` [compound 508], the IC50 on AuroraA-TPX2 came out at 0.082 µM; on AuroraB, 0.009 µM.

With `COc1cnc2c(Oc3ccc(Nc4nnc(-c5ccc6c(ccn6C)c5)c5ccccc45)cc3)ccnc2c1` [compound 204, 4-(1-methyl-1H-indol-5-yl)-N-(4-((7-(methyloxy)-1,5-naphthyridin-4-yl)oxy)phenyl)-1-phthalazinamine], the IC50 at AuroraA-TPX2 came to 0.026 µM; at AuroraB, 0.003 µM.

`COc1cnc2c(Sc3ccc(Nc4nnc(-c5ccccc5F)c5ccccc45)cc3)ccnc2c1` [compound 495]: the IC50 on AuroraA-TPX2 came to 0.15 µM; at AuroraB it was 0.026 µM.

Regarding `c1ccc(-c2nnc(Nc3ccc(Sc4ccnc5c4CCCN5)cc3)c3ccccc23)cc1` [compound 577], the IC50 was 0.428 µM on AuroraA-TPX2 and 0.021 µM at AuroraB.

Turning to `Oc1cnc2c(Sc3ccc(Nc4nnc(-c5ccccc5)c5ccccc45)cc3)ccnc2c1` [compound 415], the IC50 on AuroraA-TPX2 amounted to 0.043 µM; on AuroraB it was 0.012 µM.

As to `Clc1ccc(-c2nnc(Nc3ccc(Sc4ccnc5ccncc45)cc3)c3ccccc23)nc1` [compound 430], the IC50 on AuroraA-TPX2 is 0.084 µM; at AuroraB, 0.007 µM.

For `COc1cnc2c(Oc3ccc(Nc4nnc(C5CC5)c5ccccc45)cc3)ccnc2c1` [compound 543], the IC50 was found to be 0.581 µM at AuroraA-TPX2 and 0.044 µM on AuroraB.

`Clc1ccc(-c2nnc(Nc3ccc(Sc4ccnc5[nH]cnc45)cc3)c3ccccc23)cc1` [compound 363, N-(4-(3H-imidazo[4,5-b]pyridin-7-ylthio)phenyl)-4-(4-chlorophenyl)phthalazin-1-amine]: the IC50 at AuroraA-TPX2 came to 0.019 µM; at AuroraB, 0.036 µM.

Take `COCCn1ccc2nccc(Sc3ccc(Nc4nnc(-c5ccc(Cl)cc5)c5ccccc45)cc3)c21` [compound 469, 4-(4-chlorophenyl)-N-(4-((1-(2-(methyloxy)ethyl)-1H-pyrrolo[3,2-b]pyridin-7-yl)thio)phenyl)-1-phthalazinamine]: the IC50 at AuroraA-TPX2 was found to be 0.11 µM; at AuroraB, 0.053 µM.

Turning to `COc1ccc2c(Oc3ccc(Nc4nnc(-c5cccc(OC)n5)c5ccccc45)cc3)ccnc2c1` [compound 100, 4-(6-(methyloxy)-2-pyridinyl)-N-(4-((7-(methyloxy)-4-quinolinyl)oxy)phenyl)-1-phthalazinamine], the IC50 on AuroraA-TPX2 amounted to 0.038 µM; on AuroraB, 0.006 µM.

As to `COc1cnc2c(Oc3ccc(Nc4nnc(-c5ccc(F)c(Cl)c5)c5ccccc45)cc3)ccnc2c1` [compound 193, 4-(3-chloro-4-fluorophenyl)-N-(4-((7-(methyloxy)-1,5-naphthyridin-4-yl)oxy)phenyl)-1-phthalazinamine], the figures for the IC50 on AuroraA-TPX2 and on AuroraB were 0.023 µM and 0.005 µM, respectively.

Regarding `COc1cc2nccc(Oc3ccc(Nc4nnc(-c5cccc(C)n5)c5ccccc45)cc3)c2cc1OC` [compound 150, N-(4-((6,7-bis(methyloxy)-4-quinolinyl)oxy)phenyl)-4-(6-methyl-2-pyridinyl)-1-phthalazinamine], the results for the IC50 at AuroraA-TPX2 and at AuroraB were 0.014 µM and 0.007 µM, respectively.

On to `COc1cnc2c(Sc3ccc(Nc4nnc(N5CCN6C[C@H](F)C[C@H]6C5)c5ccccc45)cc3)ccnc2c1` [compound 600], for which the results for the IC50 at AuroraA-TPX2 and at AuroraB were 0.014 µM and 0.01 µM, respectively.

Turning to `COc1cnc2c(Sc3ccc(Nc4nncc5ccccc45)cc3)ccnc2c1` [compound 547, N-(4-((7-methoxy-1,5-naphthyridin-4-yl)sulfanyl)phenyl)-1-phthalazinamine], the IC50 at AuroraA-TPX2 amounted to 0.335 µM; on AuroraB, 0.02 µM.

In the case of `Cc1ccc(-c2nnc(Nc3ccc(Sc4ccnc5ccncc45)cc3)c3ccccc23)nc1` [compound 433], the IC50 at AuroraA-TPX2 stood at 0.056 µM; on AuroraB, 0.004 µM.

On to `COc1cnc2c(Oc3ccc(Nc4nnc(-c5ccccc5Cl)c5ccccc45)cc3)ccnc2c1` [compound 546], for which the IC50 amounted to 0.723 µM at AuroraA-TPX2 and 0.135 µM on AuroraB.

Turning to `COc1cnc2c(Oc3ccc(Nc4nnc(-c5ccc(F)cc5)c5ccccc45)cc3)ccnc2c1` [compound 220, 4-(4-fluorophenyl)-N-(4-((7-(methyloxy)-1,5-naphthyridin-4-yl)oxy)phenyl)-1-phthalazinamine], the IC50 stood at 0.047 µM on AuroraA-TPX2 and 0.004 µM at AuroraB.

For the compound `COc1cc2nccc(Oc3ccc(Nc4nnc(-c5cccc(OC)n5)c5ccccc45)cc3)c2cn1` [compound 131, N-(4-((7-(methyloxy)-1,6-naphthyridin-4-yl)oxy)phenyl)-4-(6-(methyloxy)-2-pyridinyl)-1-phthalazinamine], the IC50 at AuroraA-TPX2 came to 0.019 µM; on AuroraB it was 0.003 µM.

In the case of `c1ccc2c(Sc3ccc(Nc4nnc(-c5ccc6c(c5)OCO6)c5ccccc45)cc3)ccnc2c1` [compound 517], the results for the IC50 at AuroraA-TPX2 and at AuroraB were 0.15 µM and 0.017 µM, respectively.

As for `COc1cnc2c(Sc3ccc(Nc4nnc(OCCC5CCCCN5)c5ccccc45)cc3)ccnc2c1` (centres unmarked) [Example 403, N-(4-(7-Methoxy-1,5-naphthyridin-4-ylthio)phenyl)-4-(2-(piperidin-2-yl)ethoxy)phthalazin-1-amine], the IC50 on AuroraA-TPX2 turned out to be 0.239 µM; on AuroraB it was 0.005 µM.

As for `Cc1csc(-c2nnc(Nc3ccc(Sc4ccnc5cc(OC(F)(F)F)ccc45)cc3)c3ccccc23)c1` [compound 499], the results for the IC50 at AuroraA-TPX2 and on AuroraB were 0.277 µM and 0.363 µM, respectively.

For `CCCc1cc(-c2ccccc2)nnc1Nc1ccc(Oc2ccnc3cc(C#N)ccc23)cc1` [compound 196, 4-((4-((6-phenyl-4-propyl-3-pyridazinyl)amino)phenyl)oxy)-7-quinolinecarbonitrile], the results for the IC50 at AuroraA-TPX2 and at AuroraB were 0.672 µM and 0.006 µM, respectively.

Take `COc1ccc2nccc(Sc3ccc(Nc4nnc(-c5ccc(Cl)cc5)c5ccccc45)cc3)c2c1` [compound 315, 4-(4-chlorophenyl)-N-(4-(6-methoxyquinolin-4-ylthio)phenyl)phthalazin-1-amine]: the IC50 on AuroraA-TPX2 came out at 0.036 µM; on AuroraB it was 0.031 µM.

Regarding `N#Cc1ccc2c(Oc3ccc(Nc4nnc(-c5ccccc5)c5ccccc45)cc3)ccnc2c1` [compound 105, 4-((4-((4-phenyl-1-phthalazinyl)amino)phenyl)oxy)-7-quinolinecarbonitrile], the IC50 on AuroraA-TPX2 is 0.039 µM; on AuroraB, 0.003 µM.
